These results are taken from US12459922B2 (Gilead Sciences, Inc., priority 2022, dated 2025).

The experiment has as its system endogenous cellular STAT1 (phosphorylated at Tyr701) in NCI-H1373 cells. Nature of the experiment: Phospho-STAT1 (Tyr701) LANCE Ultra TR-FRET Detection Assay. In kind it is cell-based. The note with it: Homo sapiens, phospho-STAT1 (Tyr701) induction, read-out: NH1373 pSTAT1 EC50. In general terms: Time-resolved FRET reads energy transfer from a long-lived donor to a nearby acceptor.

Like-named read-outs stand apart in the source and are kept apart here.

The EC50 is the concentration needed to bring the measured effect to its halfway point. Regarding `O=c1[nH]ncc(N[C@H]2CCC[C@@H](Cn3ccc4cc(-c5ncc(C(F)(F)F)cn5)c(F)c(F)c4c3=O)C2)c1C(F)(F)F` [Example 232, 7,8-difluoro-2-(((1R,3S)-3-((6-oxo-5-(trifluoromethyl)-1,6-dihydropyridazin-4-yl)amino)cyclohexyl)methyl)-6-(5-(trifluoromethyl)pyrimidin-2-yl)isoquinolin-1(2H)-one], the EC50 (NCI-H1373, 48 h) was 1.67 nM.

`CC[C@@H](CCCn1ccc2cc(-c3ncc(C(F)(F)F)c(N)n3)c(F)c(F)c2c1=O)Nc1cn[nH]c(=O)c1C(F)(F)F` [Example 348, (S)-6-(4-amino-5-(trifluoromethyl)pyrimidin-2-yl)-7,8-difluoro-2-(4-((6-oxo-5-(trifluoromethyl)-1,6-dihydropyridazin-4-yl)amino)hexyl)isoquinolin-1(2H)-one]: where the note is “NCI-H1373, 48 h”, the EC50 came out at 6.47 nM.

Take `COc1cnc(-c2cc3ncn(CCC[C@H](C)Nc4cn[nH]c(=O)c4C(F)(F)F)c(=O)c3cc2F)nc1N1CC(O)C1` [Example 208]: the 50% effective concentration (EC50) (NCI-H1373, 48 h) came out at 206 nM.

On to `O=c1[nH]ncc(N[C@H](CCCn2ccc3cc(-c4cnc(N5CCNCC5)cn4)c(F)cc3c2=O)COC(F)F)c1C(F)(F)F` [Example 423, (R)-2-(5-(difluoromethoxy)-4-((6-oxo-5-(trifluoromethyl)-1,6-dihydropyridazin-4-yl)amino)pentyl)-7-fluoro-6-(5-(piperazin-1-yl)pyrazin-2-yl)isoquinolin-1(2H)-one], for which, where the note is “NCI-H1373, 48 h”, the half-maximal effective concentration (EC50) was 446 nM.

For `C[C@@H]1C[C@H](C)N1c1nc(-c2cc3ccn(CCC[C@H](C)Nc4cn[nH]c(=O)c4C(F)(F)F)c(=O)c3cc2F)ncc1C(F)(F)F` [Example 318, 6-(4-((2R,4S)-2,4-dimethylazetidin-1-yl)-5-(trifluoromethyl)pyrimidin-2-yl)-7-fluoro-2-((S)-4-((6-oxo-5-(trifluoromethyl)-1,6-dihydropyridazin-4-yl)amino)pentyl)isoquinolin-1(2H)-one], the EC50 (NCI-H1373, 48 h) is 28.6 nM.

Regarding `O=c1[nH]ncc(N2Cc3ccccc3[C@H]2CCCn2ccc3cc(-c4ncc(C(F)(F)F)cn4)c(F)cc3c2=O)c1C(F)(F)F` [Example 182, 7-fluoro-2-[3-[(1R)-2-[6-oxo-5-(trifluoromethyl)-1H-pyridazin-4-yl]isoindolin-1-yl]propyl]-6-[5-(trifluoromethyl)pyrimidin-2-yl]isoquinolin-1-one], the EC50 (NCI-H1373, 48 h) was found to be 82.5 nM.

As for `[2H]C([2H])([2H])OC[C@@H](CCCn1cnc2cc(-c3ncc(C(F)F)c(N)n3)c(F)cc2c1=O)Nc1cn[nH]c(=O)c1C(F)(F)F` [Example 433], where the note is “NCI-H1373, 48 h”, the EC50 turned out to be 15.6 nM.

Regarding `O=c1[nH]ncc(N2CCCN2CCCn2ccc3cc(-c4ncc(C(F)(F)F)cn4)c(F)cc3c2=O)c1C(F)(F)F` [Example 154, 7-fluoro-2-[3-[2-[6-oxo-5-(trifluoromethyl)-1H-pyridazin-4-yl]pyrazolidin-1-yl]propyl]-6-[5-(trifluoromethyl)pyrimidin-2-yl]isoquinolin-1-one], the EC50 (48 hours) turned out to be 115 nM.

As to `O=c1[nH]ncc(NCCCCn2ccc3cc(-c4ncc(C(F)(F)F)cn4)c(F)c(F)c3c2=O)c1C(F)(F)F` [Example 85, 7,8-difluoro-2-(4-((6-oxo-5-(trifluoromethyl)-1,6-dihydropyridazin-4-yl)amino)butyl)-6-(5-(trifluoromethyl)pyrimidin-2-yl)isoquinolin-1(2H)-one], where the note is “NCI-H1373, 48 h”, the EC50 was determined as 113 nM.

Turning to `O=c1[nH]ncc(N2CCC[C@H]2CCCn2ccc3cc(-c4ncc(C(F)(F)F)cn4)c(F)cc3c2=O)c1C(F)(F)F` [Example 120, (S)-7-fluoro-2-(3-(1-(6-oxo-5-(trifluoromethyl)-1,6-dihydropyridazin-4-yl)pyrrolidin-2-yl)propyl)-6-(5-(trifluoromethyl)pyrimidin-2-yl)isoquinolin-1(2H)-one], the EC50 (NCI-H1373, 48 h) is 9.73 nM.

With `Nc1nc(-c2cc3ccn(CC[C@H]4CCCC[C@@H]4Nc4cn[nH]c(=O)c4C(F)(F)F)c(=O)c3cc2F)ncc1C(F)(F)F` [Example 451, 6-[4-amino-5-(trifluoromethyl)pyrimidin-2-yl]-7-fluoro-2-[2-[(1R,2S)-2-[[6-oxo-5-(trifluoromethyl)-1H-pyridazin-4-yl]amino]cyclohexyl]ethyl]isoquinolin-1-one], the EC50 (NCI-H1373, 48 h) was found to be 4.76 nM.

For the compound `Nc1nc(-c2cc3ccn(CCC[C@H](COC(F)F)Nc4cn[nH]c(=O)c4C(F)(F)F)c(=O)c3cc2F)n[nH]1` [Example 421, (R)-6-(5-amino-1H-1,2,4-triazol-3-yl)-2-(5-(difluoromethoxy)-4-((6-oxo-5-(trifluoromethyl)-1,6-dihydropyridazin-4-yl)amino)pentyl)-7-fluoroisoquinolin-1(2H)-one], where the note is “NCI-H1373, 48 h”, the half-maximal effective concentration (EC50) worked out at 110 nM.

As to `O=c1[nH]ncc(N[C@H](CCCn2ccc3cc(-c4ncc(C(F)(F)F)cn4)c(F)cc3c2=O)c2nnc(C3CC3)o2)c1C(F)(F)F` [Example 476, 2-[(4R)-4-(5-cyclopropyl-1,3,4-oxadiazol-2-yl)-4-[[6-oxo-5-(trifluoromethyl)-1H-pyridazin-4-yl]amino]butyl]-7-fluoro-6-[5-(trifluoromethyl)pyrimidin-2-yl]isoquinolin-1-one], the EC50 (NCI-H1373, 48 h) was found to be 20.3 nM.

As for `O=c1[nH]ncc(N[C@H]2CCC[C@@H](Cn3cnc4cc(-c5ncc(C(F)(F)F)cn5)c(F)cc4c3=O)C2)c1C(F)(F)F` [Example 235], the concentration giving a half-maximal response (EC50) (NCI-H1373, 48 h) amounted to 4.38 nM.

As for `C[C@@H](C[C@H](O)Cn1ccc2cc(-c3ncc(C(F)(F)F)cn3)c(F)cc2c1=O)Nc1cn[nH]c(=O)c1C(F)(F)F` (single isomer, unassigned) [Example 479], the EC50 (NCI-H1373, 48 h) is 82.8 nM.

With `O=c1[nH]ncc(O[C@H]2CCC[C@@H](Cn3cnc4cc(-c5ncc(C(F)F)cn5)c(F)cc4c3=O)C2)c1C(F)(F)F` [Example 457, 7-(5-(difluoromethyl)pyrimidin-2-yl)-6-fluoro-3-(((1R,3S)-3-((6-oxo-5-(trifluoromethyl)-1,6-dihydropyridazin-4-yl)oxy)cyclohexyl)methyl)quinazolin-4(3H)-one], the half-maximal effective concentration (EC50) (NCI-H1373, 48 h) turned out to be 10.6 nM.

Take `[2H][C@@](C)(CCCn1ccc2cc(-c3ncc(C(F)(F)F)cn3)c(F)c(F)c2c1=O)Nc1cn[nH]c(=O)c1C(F)(F)F` (single isomer, unassigned) [Example 86]: the EC50 (NCI-H1373, 48 h) turned out to be 9.21 nM.

With `O=c1[nH]ncc(N[C@H](CCCn2cnc3cc(-c4ncc(C(F)F)cn4)c(F)cc3c2=O)COC(F)F)c1C(F)(F)F` [Example 384, (R)-3-(5-(difluoromethoxy)-4-((6-oxo-5-(trifluoromethyl)-1,6-dihydropyridazin-4-yl)amino)pentyl)-7-(5-(difluoromethyl)pyrimidin-2-yl)-6-fluoroquinazolin-4(3H)-one], the EC50 (NCI-H1373, 48 h) is 2.41 nM.

Turning to `C[C@H](Nc1cn[nH]c(=O)c1C(F)(F)F)[C@@H](O)CCn1ccc2cc(-c3ncc(C(F)(F)F)cn3)c(F)cc2c1=O` [Example 442, 7-fluoro-2-((3S,4S)-3-hydroxy-4-((6-oxo-5-(trifluoromethyl)-1,6-dihydropyridazin-4-yl)amino)pentyl)-6-(5-(trifluoromethyl)pyrimidin-2-yl)isoquinolin-1(2H)-one], the EC50 (NCI-H1373, 48 h) was determined as 1850 nM.

Turning to `O=c1[nH]ncc(N[C@H](CCCn2ccc3cc(-c4ccc(C(F)F)cn4)c(F)c(F)c3c2=O)COC(F)F)c1C(F)(F)F` [Example 406, (R)-2-(5-(difluoromethoxy)-4-((6-oxo-5-(trifluoromethyl)-1,6-dihydropyridazin-4-yl)amino)pentyl)-6-(5-(difluoromethyl)pyridin-2-yl)-7,8-difluoroisoquinolin-1(2H)-one], the EC50 (NCI-H1373, 48 h) was 1.72 nM.
